In US20170226503A1, “Methods for Sequential Screening with Co-Culture Based Detection of Metagenomic Elements Conferring Heterologous Metabolite Secretion” (MetaMixis Biologics, Inc., priority 2014, published 2017):

System: MIE p10c20
Assay: Validation of MIE p10c20 from retrofitted metagenomic library (fluorescence)
Format: cell-based
Details: 1 mM
Text: A metagenomic DNA library was “retroffited” as described herein and shown in FIG. 15 to identify a metabolite induced element (MIE). In FIG. 16 fluoresence plots are shown for a retroffited metagenomic library assayed for fluorescence emitted by the fluorescent marker. […] Induction was by a pool of pCoumaric acid, Vanillic acid and Vanillin. The circled data point that represents a fosmid clone harboring a candidate MIE (p10c20) which was selected for further investigation.

Compound: O=C(O)/C=C/c1ccc(O)cc1 [pCoumaric acid]
- responsiveness of MIE p10c20: most responsive
